Data: the supplement of paper PMC11061612

Assays:
[1] = tested on: FADU (Head and Neck Carcinoma); assay: Bliss excess, mean over the matrix (fraction); higher = more synergy
Method in brief: (§1)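 Cell lines in DMEM/F12 or RPMI with 10% FBS were plated in 1536-well plates, held 24 hours at 37°C, 5% CO2, then given two-drug dose matrices for 72 hours (DMSO typically 0.2%). Viability was read by CellTiter-Glo 2.0 luminescence and scaled as inhibition from 0 (vehicle wells) to 1 (blank wells). Combination Emax is the second-highest inhibition in the matrix; Bliss excess is observed combination effect minus expected EA + EB − EA·EB, EA and EB being single-agent effects.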

[2] = tested on: LB996-RCC (Kidney Carcinoma); assay: as above
Method in brief: as §1

[3] = tested on: NCI-H446 (Small Cell Lung Carcinoma); assay: as above
Method in brief: as §1

[4] = tested on: RERF-LC-Sq1 (Squamous Cell Lung Carcinoma); assay: as above
Method in brief: as §1

[5] = tested on: SU-DHL-10 (B-Cell Non-Hodgkin's Lymphoma); assay: as above
Method in brief: as §1

[6] = tested on: NCI-H23 (Lung Adenocarcinoma); assay: as above
Method in brief: as §1

[7] = tested on: CAL-120 (Breast Carcinoma); assay: as above
Method in brief: as §1

A2058 (Melanoma) [8] = assay: as above
Method in brief: as §1

SF268 (Low Grade Glioma) [9] = assay: as above
Method in brief: as §1

[10] = tested on: HEC-1 (Endometrial Carcinoma); assay: as above
Method in brief: as §1

[11] = tested on: RERF-GC-1B (Gastric Carcinoma); assay: as above
Method in brief: as §1

WM278 (Melanoma) [12] = assay: as above
Method in brief: as §1

[13] = tested on: HCT-15 (Colorectal Carcinoma); assay: as above
Method in brief: as §1

[14] = tested on: LXF-289 (Lung Adenocarcinoma); assay: as above
Method in brief: as §1

[15] = tested on: GP5d (Colorectal Carcinoma); assay: as above
Method in brief: as §1

GB-1 (Glioblastoma) [16] = assay: as above
Method in brief: as §1

[17] = tested on: 23132-87 (Gastric Carcinoma); assay: as above
Method in brief: as §1

LN-229 (Glioblastoma) [18] = assay: as above
Method in brief: as §1

[19] = tested on: KE-37 (T-Lymphoblastic Leukemia); assay: as above
Method in brief: as §1

[20] = tested on: OAW-42 (Ovarian Carcinoma); assay: as above
Method in brief: as §1

WM793B (Melanoma) [21] = assay: as above
Method in brief: as §1

[22] = tested on: FADU (Head and Neck Carcinoma); assay: combination Emax (second highest fraction inhibited in the dose matrix, 72 h); higher = more inhibition; extreme values may be limits of the assay
Method in brief: as §1

[23] = tested on: LB996-RCC (Kidney Carcinoma); assay: as above
Method in brief: as §1

[24] = tested on: NCI-H446 (Small Cell Lung Carcinoma); assay: as above
Method in brief: as §1

[25] = tested on: RERF-LC-Sq1 (Squamous Cell Lung Carcinoma); assay: as above
Method in brief: as §1

[26] = tested on: SU-DHL-10 (B-Cell Non-Hodgkin's Lymphoma); assay: as above
Method in brief: as §1

[27] = tested on: NCI-H23 (Lung Adenocarcinoma); assay: as above
Method in brief: as §1

[28] = tested on: CAL-120 (Breast Carcinoma); assay: as above
Method in brief: as §1

A2058 (Melanoma) [29] = assay: as above
Method in brief: as §1

SF268 (Low Grade Glioma) [30] = assay: as above
Method in brief: as §1

[31] = tested on: HEC-1 (Endometrial Carcinoma); assay: as above
Method in brief: as §1

[32] = tested on: RERF-GC-1B (Gastric Carcinoma); assay: as above
Method in brief: as §1

WM278 (Melanoma) [33] = assay: as above
Method in brief: as §1

[34] = tested on: HCT-15 (Colorectal Carcinoma); assay: as above
Method in brief: as §1

[35] = tested on: LXF-289 (Lung Adenocarcinoma); assay: as above
Method in brief: as §1

[36] = tested on: GP5d (Colorectal Carcinoma); assay: as above
Method in brief: as §1

GB-1 (Glioblastoma) [37] = assay: as above
Method in brief: as §1

[38] = tested on: 23132-87 (Gastric Carcinoma); assay: as above
Method in brief: as §1

LN-229 (Glioblastoma) [39] = assay: as above
Method in brief: as §1

[40] = tested on: KE-37 (T-Lymphoblastic Leukemia); assay: as above
Method in brief: as §1

[41] = tested on: OAW-42 (Ovarian Carcinoma); assay: as above
Method in brief: as §1

WM793B (Melanoma) [42] = assay: as above
Method in brief: as §1
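For Bliss excess, mean over the matrix in this document: after 72 h of two-drug dosing.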

CC(=O)c1c(C)c2cnc(Nc3ccc(N4CCNCC4)cn3)nc2n(C2CCCC2)c1=O [Palbociclib] + CN(CC[C@H](CSC1=CC=CC=C1)NC2=C(C=C(C=C2)S(=O)(=O)NC(=O)C3=CC=C(C=C3)N4CCC(CC4)[C@H](C5=CC=CC=C5C6=CC=C(C=C6)Cl)O)S(=O)(=O)C(F)(F)F)CCO [AZD4320] (first compound max 10 µM, 7x7, partner max 1 µM)
Bliss excess [1]: -0.137
Bliss excess [2]: -0.0652
Bliss excess [3]: -0.0065
Bliss excess [4]: -0.0176
Bliss excess [5]: 0.0319
Bliss excess [6]: -0.0367
Bliss excess [7]: -0.0614
Bliss excess (A2058 (Melanoma) [8]): -0.0261
Bliss excess (SF268 (Low Grade Glioma) [9]): -0.0438
Bliss excess [10]: -0.125
Bliss excess [11]: -0.0147
Bliss excess (WM278 (Melanoma) [12]): -0.106
Bliss excess [13]: -0.0286
Bliss excess [14]: -0.0091
Bliss excess [15]: 0.0238
Bliss excess (GB-1 (Glioblastoma) [16]): -0.111
Bliss excess [17]: -0.093
Bliss excess (LN-229 (Glioblastoma) [18]): -0.059
Bliss excess [19]: -0.0137
Bliss excess [20]: -0.0177
Bliss excess (WM793B (Melanoma) [21]): -0.0525
combination Emax [22]: 0.356
combination Emax [23]: 0.729
combination Emax [24]: 0.887
combination Emax [25]: 0.575
combination Emax [26]: 0.995
combination Emax [27]: 0.312
combination Emax [28]: 0.815
combination Emax (A2058 (Melanoma) [29]): 0.323
combination Emax (SF268 (Low Grade Glioma) [30]): 0.35
combination Emax [31]: 0.298
combination Emax [32]: 0.35
combination Emax (WM278 (Melanoma) [33]): 0.711
combination Emax [34]: 0.726
combination Emax [35]: 0.449
combination Emax [36]: 0.592
combination Emax (GB-1 (Glioblastoma) [37]): 0.209
combination Emax [38]: 0.578
combination Emax (LN-229 (Glioblastoma) [39]): 0.126
combination Emax [40]: 1
combination Emax [41]: 0.562
combination Emax (WM793B (Melanoma) [42]): 0.474
